The text below walks through data of PMC4664966, “Discovery and characterization of novel inhibitors of the sodium-coupled citrate transporter (NaCT or SLC13A5)” (Scientific Reports, 2015).

Some results are limits rather than exact numbers.

The test system of data set [1] is HEK-293-derived cells. The experiment in a line: Cell viability, CellTiter-glo, HEK-293-derived cells. The arrangement: species or system human. The note with it: HEK-293-derived cell-based assay conditions. As for the experimental part:
For cell viability, cells are incubated with compound for 90 minutes at 37 °C. Following this incubation, 25 μL Cell Titer-Glo (Promega) was added to the plates which were then analyzed on the Envision (luminescence).

Data set [2] relates to HEKNaCT cells. The experiment in a line: OCR and ECAR measurements in HEKNaCT cells incubated with citrate (Seahorse). Format: cell-based, human. The note with it: 30 μM compound. How it is done: HEKNaCT cells were plated at 12,000 cells/well onto a poly-d-lysine coated XF96 plate (Sigma, Seahorse Biosciences). Cells were plated in culture media containing HG DMEM, 10% FBS, 2 mM glutamine, 1 mM pyruvate, 0.5 mg/mL Geneticin, and 1% penicillin/streptomycin (Life Technologies) and incubated overnight at 37 °C. The following day, the media was changed to Seahorse Biosciences assay medium (Seahorse Biosciences) supplemented with 10 mM glucose and 2 mM pyruvate (Sigma). The plate was pre-incubated for 1 hour in a 37 °C air incubator. […]

A short description of data set [3]: Intra-/extracellular unbound concentration ratio (Kpuu) in HEKNaCT cells. Format: in vitro ADME. The note with it: human, ratio of free intracellular and media concentration after 1 h incubation at 1 μM, geometric mean of 3 replicates ± SD. How it is done:
(§1) kpuu values were determined by measuring total cell and media concentrations corrected for their respective fraction unbound. Detailed methods to determine intra- and extracellular concentrations of compound in the HEKNaCT cells and human hepatocytes will be the subject of a separate manuscript that is under preparation. […]
(§2) Intra- and extracellular concentrations of compound in cellular assays. kpuu values were determined by measuring total cell and media concentrations corrected for their respective […]
(§3) fraction unbound. […]
(§4) The solution was heated to reflux until the total volume was reduced to ~25 mL.
(§5) Hexane (25 mL) was added and the mixture was brought back to reflux than allowed to slowly cool to room temperature. After standing at room temperature for 16 h, the resulting suspension was filtered and dried under high vacuum to yield (S)-2-(4-(tert-butyl)phenethyl)-2-hydroxysuccinic acid (3) as a white solid. The filtrate was allowed to stand at room temperature for 4 days. The solvent evaporated to ~15 mL and large, colorless crystals formed.
(§6) X-ray analysis. Data collection was performed on a Bruker APEX diffractometer at room temperature. Data collection consisted of 3 omega scans and low angle and three at high angle; each with 0.5 step. In addition, 2 phi scans were collected to improve the quality of the […]

A short description of data set [4]: Intra-/extracellular unbound concentration ratio (Kpuu) in human hepatocytes. Type of data set: in vitro ADME. The note with it: cryopreserved hepatocytes, ratio of free intracellular and media concentration after 1 h incubation at 1 μM, geometric mean of 3 replicates ± SD. As for the experimental part:
as §1, §2, §3, §4, §5, §6

In data set [5] the test system is human hepatocytes. The experiment in a line: Incorporation of [14C]-citrate into triglycerides by human hepatocytes. Format: cell-based. The settings on record: radiolabeled citrate for 24 hours. How it is done: Incorporation of [^14C]-citrate into triglycerides by human hepatocytes was measured using the same procedure as above except cells were incubated with the radioactive citrate for 24 hours. Subsequently, the media was aspirated and 100 μL of isopropyl alcohol:THF (9:1) was added. The plate was shaken for 15 minutes, centrifuged at 3000 revolutions per minute for 5 minutes, and 50 μL of supernatant from each well was applied per TLC lane (Whatman LK6D Silica Gel Plates). Radiolabeled lipids were resolved using a 2-solvent system: Solvent 1 contained a 100:100:100:40:36 mixture of ethyl acetate:isopropyl alcohol:CHCl3:MeOH:0.25% KCl and Solvent 2 a 70:27:3 hexane:diethyl ether:acetic acid mixture. The TLC plate was dried under nitrogen for 30 minutes and [^14C]-standards added to a vacant lane. Bands were visualized and quantitated using a Molecular Dynamics’ Storm 860 PhosphorImager system following 18–36 hours exposure to a Phosphorimager screen.

In data set [6] the target is T1, NaDC3 (SLC13A3) (Homo sapiens, UniProt Q8WWT9).
T1 construct: host or cells: HEK-293, transient (Fugene HD)
T1 sequence (Q8WWT9 1-602): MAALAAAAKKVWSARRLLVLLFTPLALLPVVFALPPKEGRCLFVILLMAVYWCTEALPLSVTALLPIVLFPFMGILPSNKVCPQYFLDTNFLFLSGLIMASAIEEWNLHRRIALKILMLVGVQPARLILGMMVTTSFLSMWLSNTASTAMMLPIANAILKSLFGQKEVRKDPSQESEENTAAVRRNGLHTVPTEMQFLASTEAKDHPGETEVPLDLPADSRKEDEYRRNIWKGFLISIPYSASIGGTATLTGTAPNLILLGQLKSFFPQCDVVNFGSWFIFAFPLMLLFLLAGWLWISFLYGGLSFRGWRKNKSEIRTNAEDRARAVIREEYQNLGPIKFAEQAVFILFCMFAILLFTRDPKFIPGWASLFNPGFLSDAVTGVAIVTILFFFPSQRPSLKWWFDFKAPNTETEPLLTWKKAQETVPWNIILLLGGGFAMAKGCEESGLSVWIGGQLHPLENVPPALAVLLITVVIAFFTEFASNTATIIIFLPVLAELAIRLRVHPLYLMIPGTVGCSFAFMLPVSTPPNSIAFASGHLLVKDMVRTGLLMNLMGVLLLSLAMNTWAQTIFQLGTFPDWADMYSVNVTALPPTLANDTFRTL
In words: Inhibition of citrate or succinate uptake in HEKNaDC3 cells. Type of data set: cell-based. The settings on record: compound 4: mean of 2 replicates. The text has this:
(§7) Protocols to generate the stable cell line overexpressing NaCT or cell transfection with SLC13A2 or SLC13A3 can be found in the supporting information. HEK-293 cells stably transfected with the human sodium Citrate transporter SLC13A5 or transiently transfected with the human SLC13A2 or SLC13A3 transporter were removed from the flasks with dissociation buffer and re-suspended in an equal volume of growth media (DMEM, High Glucose supplemented with 10% heat inactivated fetal bovine serum and 500 μg/ml Geneticin). For the transient transfections, Geneticin was eliminated from the media. Cell suspensions were centrifuged at 1,000 rpm for approximately 5 minutes. Resulting cell pellets were re-suspended in growth media and placed in a 37 °C water bath for approximately 10 minutes prior to a final spin at 1,000 rpm. Following this spin the resulting cell pellets were re-suspended in assay buffer, 142 mM NaCl (or 142 mM choline chloride), 5 mM KCl, 1.2 mM MgSO4, 1.5 mM CaCl, 5 mM glucose and 25 mM HEPES pH 7.4. Cell suspensions were counted and the concentration adjusted as needed with assay buffer to 2e[6] viable cells /mL. 20 μL of cell suspension were added to 384-well cyotstar-T plates followed by the addition of 5 μL of 10× concentration of compound. Cells and compound were incubated at 37 °C for approximately 30 minutes prior to the addition of 25 μL of 300 μM citric acid (16 μM radiolabeled [^14C]-citric acid and 284 μM cold citric acid) to make a 150 μM final concentration of citric acid or 21 μM [^14C]-succinic acid. After substrate addition, the uptake of radioactivity was monitored on Perkin Elmer Microbeta plate reader. Data from reads between 45–90 minutes was used to assess the ability of test compounds to inhibit the uptake of citric or succinic acid. […]
(§8) were plated, and incubated for 48 hours. Following the incubation, NaDC1 and NaDC3 assays were executed identical to the procedure for NaCT. […]
(§9) The solution was heated to reflux until the total volume was reduced to ~25 mL. […]

Data set [7] has as its target T2, NaDC1 (SLC13A2) (Homo sapiens, UniProt Q13183).
T2 construct: host or cells: HEK-293, transient (Fugene HD)
T2 sequence (Q13183 1-592): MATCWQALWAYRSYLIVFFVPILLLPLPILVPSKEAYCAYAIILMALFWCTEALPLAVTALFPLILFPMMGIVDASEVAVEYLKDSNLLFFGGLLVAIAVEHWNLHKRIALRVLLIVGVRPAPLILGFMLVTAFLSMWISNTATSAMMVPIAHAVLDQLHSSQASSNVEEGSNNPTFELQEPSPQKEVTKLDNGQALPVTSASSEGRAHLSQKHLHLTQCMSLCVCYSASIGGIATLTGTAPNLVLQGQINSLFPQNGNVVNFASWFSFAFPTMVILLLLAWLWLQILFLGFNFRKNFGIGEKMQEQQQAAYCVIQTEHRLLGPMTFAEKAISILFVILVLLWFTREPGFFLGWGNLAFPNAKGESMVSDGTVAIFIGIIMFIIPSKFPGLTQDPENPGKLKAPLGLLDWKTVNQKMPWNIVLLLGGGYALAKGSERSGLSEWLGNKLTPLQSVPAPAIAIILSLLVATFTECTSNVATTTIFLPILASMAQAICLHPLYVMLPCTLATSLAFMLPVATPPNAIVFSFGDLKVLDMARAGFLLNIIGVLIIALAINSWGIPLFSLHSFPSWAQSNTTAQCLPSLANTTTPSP
In words: Inhibition of citrate or succinate uptake in HEKNaDC1 cells. The note with it: compound 4: mean of 2 replicates. Format: cell-based.
From the text: as §7, §8, §9

A short description of data set [8]: Stability in assay media. Type of data set: in vitro ADME. The settings on record: read-out: t1/2 in assay media.
Data set [9] is described as follows: Stability in human hepatocytes. Type of data set: in vitro ADME. The settings on record: metabolically competent human hepatocytes.
The target of data set [10] is T3, NaCT in cryopreserved human hepatocytes (Homo sapiens, UniProt Q86YT5).
T3 construct: the transporter was in its native environment, we used cryopreserved human hepatocytes; endogenous in cells; host or cells: cryopreserved human hepatocytes
The experiment in a line: Inhibition of citrate uptake in cryopreserved human hepatocytes. Type of data set: cell-based. The note with it: geometric mean of at least 3 replicates.

For data set [11], the system named is HEKNaCT cells. The experiment in a line: Stability in HEKNaCT cells. The settings on record: data not shown. Format: in vitro ADME, human.
Data set [12] in a line: Passive permeability, MDCK-LE cell monolayer. Format: in vitro ADME. The note with it: dog, MDCK; read-out: Papp (passive permeability). How it is done: Passive permeability was assessed using MDCK-LE cell monolayer as described previously in Di et al., (2011)[44].
Data set [13] concerns the target NaCT (SLC13A5) (Homo sapiens, UniProt Q86YT5). In words: Inhibition of citrate uptake in HEKNaCT cells. Format: cell-based. The settings on record: geometric mean of at least 3 replicates.
Method: HEK-293 cells stably transfected with the human sodium Citrate transporter SLC13A5 or transiently transfected with the human SLC13A2 or SLC13A3 transporter were removed from the flasks with dissociation buffer and re-suspended in an equal volume of growth media (DMEM, High Glucose supplemented with 10% heat inactivated fetal bovine serum and 500 μg/ml Geneticin). For the transient transfections, Geneticin was eliminated from the media. Cell suspensions were centrifuged at 1,000 rpm for approximately 5 minutes. Resulting cell pellets were re-suspended in growth media and placed in a 37 °C water bath for approximately 10 minutes prior to a final spin at 1,000 rpm. […] Cell suspensions were counted and the concentration adjusted as needed with assay buffer to 2e[6] viable cells /mL. 20 μL of cell suspension were added to 384-well cyotstar-T plates followed by the addition of 5 μL of 10× concentration of compound. […] After substrate addition, the uptake of radioactivity was monitored on Perkin Elmer Microbeta plate reader. Data from reads between 45–90 minutes was used to assess the ability of test compounds to inhibit the uptake of citric or succinic acid.
The subject of data set [14] is parental HEK-293 cells. The experiment in a line: Whole cell binding experiments with [3H]-2, parental HEK-293 cells. The arrangement: species or system human. The settings on record: 75 nM. How it is done: Parental HEK-293 cells or HEK-293 cells expressing SLC13A5 were incubated with [^3H]-2 at 75 nM. See supplemental methods for additional details. […]
were plated, and incubated for 48 hours. Following the incubation, NaDC1 and NaDC3 assays were executed identical to the procedure for NaCT.
Binding experiments with [3H]-2. Parental HEK-293 cells or cells overexpressing SLC13A5 were incubated in the media with 75 nM of [3H]-2. These cells were also incubated with either 0, […]
was monitored for 2-hours. The uptake of radioactivity was monitored on Perkin Elmer Microbeta plate reader. In experiments in which cold 2 was added to the media, after 2-hours, the cells were washed 3x with PBS, and then in fresh media 100 μM cold 2 was added for 2-hours and the disappearance of radioactivity was monitored using a Perkin Elmer Microbeta […]
Intra- and extracellular concentrations of compound in cellular assays. kpuu values were determined by measuring total cell and media concentrations corrected for their respective fraction unbound. Detailed methods to determine intra- and extracellular concentrations of […]
Crystallization and X-ray analysis of (S)-2-(4-(tert-butyl)phenethyl)-2-hydroxysuccinic […]
Crystallization conditions. Ethyl acetate (50 mL) was added to (S)-2-(4-(tert-butyl)phenethyl)- 2-hydroxysuccinic acid (3) ([…], 46.2 mmol). The suspension turned to a solution upon heating. […]

Sequence of NaCT (SLC13A5) (Q86YT5 whole entry): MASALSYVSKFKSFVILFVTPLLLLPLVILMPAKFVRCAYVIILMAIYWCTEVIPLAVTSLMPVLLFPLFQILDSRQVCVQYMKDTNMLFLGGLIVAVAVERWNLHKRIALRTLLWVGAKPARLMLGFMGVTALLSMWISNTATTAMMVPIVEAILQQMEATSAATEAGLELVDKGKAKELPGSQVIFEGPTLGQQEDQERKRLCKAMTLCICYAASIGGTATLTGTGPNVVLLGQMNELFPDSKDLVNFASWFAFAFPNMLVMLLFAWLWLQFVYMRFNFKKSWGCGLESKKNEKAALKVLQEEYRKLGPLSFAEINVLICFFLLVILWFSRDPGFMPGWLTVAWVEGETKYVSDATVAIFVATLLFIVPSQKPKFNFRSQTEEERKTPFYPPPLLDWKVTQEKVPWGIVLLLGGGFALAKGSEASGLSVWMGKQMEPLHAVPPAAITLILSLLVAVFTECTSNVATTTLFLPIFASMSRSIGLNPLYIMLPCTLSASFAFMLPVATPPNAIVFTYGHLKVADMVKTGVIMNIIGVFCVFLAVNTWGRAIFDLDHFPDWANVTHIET
T3 sequence (Q86YT5 whole entry): as above

For `CC(C)(C)c1ccc(CCC(O)(CC(=O)O)C(=O)O)cc1` (stereo not drawn) [Compound 1], the “cellular toxicity (CellTiter-glo assessment)” value in data set [1] was “No cellular toxicity”.

In the case of `CC(C)(C)c1ccc(CC[C@](O)(CC(=O)O)C(=O)O)cc1` [Compound 3, (S)-2-(4-(tert-butyl)phenethyl)-2-hydroxysuccinic acid], the “effect on citrate induced increase in oxygen consumption rate (OCR)” value in data set [2] was “not”. In addition, the “effect on citrate suppressed extracellular acidification rate (ECAR)” value in data set [2] (citrate) is “not”. Moreover, the Kp uu at 1 h, 1 µM turned out to be 0.6 ± 0.2 in data set [3] and 0.4 ± 0.1 in data set [4]. Further, the “label incorporation in TAG” value in data set [5] was “not”.

The term IC50 denotes the concentration needed to halve the response being measured. Lower therefore signals greater potency in that assay. `O=C(O)C[C@](O)(CCc1ccc(I)cc1)C(=O)O` [Compound 4]: the IC50 in data set [6] came out at 3.2 µM; in data set [7], 5.5 µM.

The term Papp denotes the rate of passage across a membrane or cell layer, normalised by area and donor concentration. Regarding `CCOC(=O)[C@@](O)(CCc1ccc(C(C)(C)C)cc1)CC(=O)O` [Compound 5], the half-life was more than 120 min in data set [8] and 29 min in [9]. In addition, the IC50 in data set [10] was 6.76 µM; in data set [13] it was more than 25 µM. Moreover, the “stability in HEKNaCT cells” value in data set [11] is “stable”. Further, in data set [12], the Papp stood at 13 ×10⁻⁶ cm/s.

On to `[3H]C([3H])(c1ccc(C(C)(C)C)cc1)C([3H])([3H])[C@@](O)(CC(=O)O)C(=O)O` [[^3H]-2], for which the “interaction with parental HEK-293 cells” value in data set [14] is reported as “no significant interaction”.
